Measurements taken from paper PMC10675526, “Development of a Novel Peptide with Antimicrobial and Mineralising Properties for Caries Management” (Pharmaceutics, 2023).
Bridge positions count the residues as written; N and C are the ends. Peptide text beside a SMILES is read from it. * marks the point of attachment. Galloyl = O=C(c1cc(O)c(O)c(O)c1)*

Legend:
[1] = Mineralising effects on enamel blocks after pH cycling (SEM-EDS, Micro-CT, XRD); design: species or system human; settings: sound enamel treated twice daily with 160 μM, n = 8 per group, mean ± SD; for Calcium-to-phosphate molar ratio: 8 days pH cycling (16 h pH 4.5, 8 h pH 7.0), SEM-EDS; for Mineral loss / Lesion depth: 8 days pH cycling, Micro-CT; for Mineral loss: MDV control area − MDV demineralised area
Procedure: A total of 40 enamel blocks were prepared from extracted sound human molars. The pH-cycling procedure (16 h demineralisation at pH 4.5 and 8 h remineralisation at pH 7.0) was performed on enamel blocks for 8 days, using solutions that contained calcium and phosphate. The enamel blocks from the same tooth were treated twice daily with 160 μM GAPI (GAPI Group), 160 μM GA (GA Group), 160 μM PI (PI Group) and sterile deionised water (Water Group). The structure of the enamel surface was examined using SEM (n = 8 per group). The elemental analysis of enamel surface was conducted using affiliated energy-dispersive X-ray spectroscopy (EDS). The calcium-to-phosphorus molar ratio was calculated.
The mineral loss and lesion depth on the enamel blocks were assessed using microcomputed tomography (Micro-CT) (1172, SkyScan, Antwerp, Belgium) (n = 8 per group). The parameters of Micro-CT were 80 kV voltage and 100 μA current with a voxel size of 12 μm^3. The image was reconstructed with NRecon software 1.7.4.6 (SkyScan, Antwerp, Belgium) and analysed using CTAn 1.20.3.0 (SkyScan, Antwerp, Belgium) to determine the lesion depth and mineral density values (MDVs, gHApcm^−3). The mineral loss = MDV of the control area − MDV of the demineralised area.
The diffraction patterns of the enamel blocks were evaluated using X-ray diffraction analysis (XRD) (Rigaku SmartLab 9 kW, […]) (n = 2 per group).

[2] = Stability in human saliva (HPLC); type: in vitro ADME; settings: 37 °C
Procedure: The stability of peptides in human saliva (collected from six individual healthy volunteers; three males and three females; minimum age, 29; and maximum age, 36) was investigated by testing the remaining peptide concentration via HPLC system (Waters Pacific Pte Ltd., Singapore). The test was processed following a previous experimental protocol. After centrifuging the saliva and collecting the supernatant, GAPI was added to the sample and incubated at 37 °C for 60 min. A 1 mL sample was taken and analysed using HPLC system.

[3] = test system: S. mutans in three-species biofilm; experiment: Growth kinetics of multiple-species biofilm, PMA-qPCR; type: cell-based, Streptococcus mutans
Procedure: A multiple-species cariogenic biofilm consisting of S. mutans, L. casei and C. albicans was cultured following a previous protocol. The architecture of the multiple-species biofilm with or without GAPI treatment was assessed using scanning electron microscopy (SEM) and confocal laser scanning microscopy (CLSM). Propidium iodide and […] (DAPI), which highlight bacterial cells, and Concanavalin A (ConA), which labels C. albicans, were used to stain the multiple-species biofilm. The growth kinetics of the multiple-species biofilm were analysed using propidium monoazide–quantitative polymerase chain reaction (PMA-qPCR) (Supplementary Material S1).

| SMILES | Calcium-to-phosphate molar ratio [1] | Mineral loss [1] | Lesion depth [1] | time stable in saliva [2] | reduction of S. mutans in biofilm versus untreated [3] |
| --- | --- | --- | --- | --- | --- |
| O=C(O)c1cc(O)c(O)c(O)c1 [GA, gallic acid] | 1.82 ± 0.08 | 0.88 ± 0.24 gHApcm^−3 | 62 ± 12 µm |  |  |
| CC(C)[C@@H]1NC(=O)[C@H](CCCN=C(N)N)NC(=O)[C@H](Cc2ccccc2)NC(=O)[C@@H](NC(=O)[C@H](Cc2c[nH]c3ccccc23)NC(=O)[C@H](CCCN=C(N)N)NC(=O)[C@H](CCCN=C(N)N)NC(=O)c2cc(O)c(O)c(O)c2)CSSC[C@@H](C(=O)N[C@@H](CCCN=C(N)N)C(=O)O)NC(=O)[C@H](CCCCN)NC(=O)[C@H](CCCN=C(N)N)NC(=O)[C@H](Cc2ccc(O)cc2)NC(=O)[C@@H]2CSSC[C@H](NC1=O)C(=O)N[C@@H](Cc1ccc(O)cc1)C(=O)N[C@@H](CCCN=C(N)N)C(=O)NCC(=O)N[C@@H](Cc1ccccc1)C(=O)N2 [GAPI, Gallic-Acid-Polyphemusin-I] (Galloyl-RRWCFRVCYRGFCYRKCR-OH; disulfide 4-17, 8-13) |  |  |  | at least 60 min |  |
| CC(C)[C@@H]1NC(=O)[C@H](CCCNC(=N)N)NC(=O)[C@H](Cc2ccccc2)NC(=O)[C@@H](NC(=O)[C@H](Cc2c[nH]c3ccccc23)NC(=O)[C@H](CCCNC(=N)N)NC(=O)[C@H](CCCNC(=N)N)NC(=O)c2cc(O)c(O)c(O)c2)CSSC[C@@H](C(=O)N[C@@H](CCCNC(=N)N)C(=O)O)NC(=O)[C@H](CCCCN)NC(=O)[C@H](CCCNC(=N)N)NC(=O)[C@H](Cc2ccc(O)cc2)NC(=O)[C@@H]2CSSC[C@H](NC1=O)C(=O)N[C@@H](Cc1ccc(O)cc1)C(=O)N[C@@H](CCCNC(=N)N)C(=O)NCC(=O)N[C@@H](Cc1ccccc1)C(=O)N2 [GAPI, Gallic-Acid-Polyphemusin-I] (Galloyl-RRWCFRVCYRGFCYRKCR-OH; disulfide 4-17, 8-13; C-terminus assumed) | 1.81 ± 0.05 | 0.89 ± 0.20 gHApcm^−3 | 64 ± 7 µm |  | more than 10 fold |
| CC(C)[C@@H]1NC(=O)[C@H](CCCNC(=N)N)NC(=O)[C@H](Cc2ccccc2)NC(=O)[C@@H](NC(=O)[C@H](Cc2c[nH]c3ccccc23)NC(=O)[C@H](CCCNC(=N)N)NC(=O)[C@@H](N)CCCNC(=N)N)CSSC[C@@H](C(=O)N[C@@H](CCCNC(=N)N)C(=O)O)NC(=O)[C@H](CCCCN)NC(=O)[C@H](CCCNC(=N)N)NC(=O)[C@H](Cc2ccc(O)cc2)NC(=O)[C@@H]2CSSC[C@H](NC1=O)C(=O)N[C@@H](Cc1ccc(O)cc1)C(=O)N[C@@H](CCCNC(=N)N)C(=O)NCC(=O)N[C@@H](Cc1ccccc1)C(=O)N2 [PI, Polyphemusin I] (H-RRWCFRVCYRGFCYRKCR-OH; disulfide 4-17, 8-13; N-terminus and C-terminus assumed) | 1.70 ± 0.06 | 1.32 ± 0.26 gHApcm^−3 | 96 ± 9 µm |  |  |
